# Reference: ChEMBL document CHEMBL1201862, “PubChem BioAssay data set” (2004)
# Several values for one entry are separate records, joined by “and”; a condition that tells them apart may be missing. Equal values may be shown once. Activity calls are given as the source filed them.
# Key:
# Mucolipin-3 = target: T1, Mucolipin-3 (Homo sapiens, UniProt Q8TDD5); assay: Dose response cell-based high-throughput screening assay for agonists of the transient receptor potential channel ML3 (TRPML3). [Related pubchem assays: 1526, 1424, 1448 ]; format: functional
# T1 sequence (Q8TDD5 whole entry): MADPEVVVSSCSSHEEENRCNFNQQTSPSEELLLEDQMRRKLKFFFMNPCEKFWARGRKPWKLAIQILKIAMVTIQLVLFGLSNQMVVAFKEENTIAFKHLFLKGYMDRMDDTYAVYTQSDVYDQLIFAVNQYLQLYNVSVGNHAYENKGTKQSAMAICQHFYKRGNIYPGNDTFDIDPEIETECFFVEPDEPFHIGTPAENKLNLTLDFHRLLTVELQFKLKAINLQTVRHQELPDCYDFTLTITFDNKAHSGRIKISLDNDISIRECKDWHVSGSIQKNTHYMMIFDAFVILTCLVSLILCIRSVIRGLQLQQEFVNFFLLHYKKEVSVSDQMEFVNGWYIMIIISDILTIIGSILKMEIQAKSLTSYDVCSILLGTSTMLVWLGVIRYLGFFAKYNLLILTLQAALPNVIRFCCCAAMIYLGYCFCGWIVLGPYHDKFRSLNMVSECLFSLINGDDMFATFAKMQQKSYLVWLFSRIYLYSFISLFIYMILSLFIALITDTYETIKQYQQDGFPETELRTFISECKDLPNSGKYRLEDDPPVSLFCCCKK
# Ion channel NompC = Ion channel NompC (Danio rerio, UniProt Q7T1G6); assay: Fluorescence counterscreen assay for TRPML3 agonists: dose response cell-based high-throughput screening assay to identify agonists of the transient receptor potential channel N1 (TRPN1). [Related pubchem assays: 1526, 1424, 1448 ]; format: functional
# Sequence of Ion channel NompC (Q7T1G6 whole entry): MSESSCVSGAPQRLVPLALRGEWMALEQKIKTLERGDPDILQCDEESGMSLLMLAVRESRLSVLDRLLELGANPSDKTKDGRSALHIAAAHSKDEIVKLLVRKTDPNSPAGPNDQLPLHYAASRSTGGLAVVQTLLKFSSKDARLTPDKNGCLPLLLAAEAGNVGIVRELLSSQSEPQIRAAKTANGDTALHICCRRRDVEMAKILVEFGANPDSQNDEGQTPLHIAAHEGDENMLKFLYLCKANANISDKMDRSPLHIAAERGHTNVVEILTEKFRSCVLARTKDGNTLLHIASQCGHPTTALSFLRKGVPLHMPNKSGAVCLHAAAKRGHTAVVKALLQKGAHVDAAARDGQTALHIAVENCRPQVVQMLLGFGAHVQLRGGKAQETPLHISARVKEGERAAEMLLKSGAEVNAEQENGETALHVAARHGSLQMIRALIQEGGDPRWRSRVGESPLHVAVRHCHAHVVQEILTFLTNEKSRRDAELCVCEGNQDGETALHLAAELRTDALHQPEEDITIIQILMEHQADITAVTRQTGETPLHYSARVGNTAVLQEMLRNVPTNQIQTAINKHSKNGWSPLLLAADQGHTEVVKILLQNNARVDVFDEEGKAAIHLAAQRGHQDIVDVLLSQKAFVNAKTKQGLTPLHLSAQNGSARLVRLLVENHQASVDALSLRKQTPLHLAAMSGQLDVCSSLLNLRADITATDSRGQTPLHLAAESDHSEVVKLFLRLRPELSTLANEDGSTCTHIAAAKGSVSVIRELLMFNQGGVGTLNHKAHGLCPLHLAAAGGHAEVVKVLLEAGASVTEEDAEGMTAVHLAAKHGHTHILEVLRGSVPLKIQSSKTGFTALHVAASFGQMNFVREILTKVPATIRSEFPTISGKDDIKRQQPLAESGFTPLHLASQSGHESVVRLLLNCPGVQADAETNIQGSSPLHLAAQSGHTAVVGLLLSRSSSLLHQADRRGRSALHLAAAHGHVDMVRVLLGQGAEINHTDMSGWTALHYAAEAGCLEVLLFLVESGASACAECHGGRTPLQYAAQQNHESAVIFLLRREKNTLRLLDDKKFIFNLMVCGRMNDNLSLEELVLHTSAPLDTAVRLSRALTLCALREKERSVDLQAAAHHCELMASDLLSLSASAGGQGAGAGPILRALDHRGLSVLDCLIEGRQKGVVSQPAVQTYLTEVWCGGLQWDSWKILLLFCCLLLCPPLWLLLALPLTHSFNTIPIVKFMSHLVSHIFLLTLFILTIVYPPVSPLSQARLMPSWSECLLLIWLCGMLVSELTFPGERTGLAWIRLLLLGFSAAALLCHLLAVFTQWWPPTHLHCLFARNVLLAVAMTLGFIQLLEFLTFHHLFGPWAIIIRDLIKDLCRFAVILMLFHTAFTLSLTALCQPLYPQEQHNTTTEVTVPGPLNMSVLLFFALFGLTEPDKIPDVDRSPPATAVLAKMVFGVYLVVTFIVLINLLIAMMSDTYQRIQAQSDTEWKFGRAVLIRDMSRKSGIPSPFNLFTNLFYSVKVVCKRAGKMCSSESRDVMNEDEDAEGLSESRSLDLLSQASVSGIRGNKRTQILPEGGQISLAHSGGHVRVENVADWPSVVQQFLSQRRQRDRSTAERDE
# HeLa = assay: Cytotoxicity counterscreen assay for transcriptional activators of heat shock protein 70 (Hsp70). [Related pubchem assays: 1203, 1252 ]; format: functional; conditions: Homo sapiens;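 further: cells exposed to compound for 16 hours before readout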
# [1] = target: RNA-editing ligase 1, mitochondrial (Trypanosoma brucei brucei, UniProt P86926); assay: inhibition of trypanosome RNA editing ligase – biochemical, fluorescence, Trypanosoma brucei, dose response (AID 1117295); format: functional
# Sequence of RNA-editing ligase 1, mitochondrial (P86926 whole entry): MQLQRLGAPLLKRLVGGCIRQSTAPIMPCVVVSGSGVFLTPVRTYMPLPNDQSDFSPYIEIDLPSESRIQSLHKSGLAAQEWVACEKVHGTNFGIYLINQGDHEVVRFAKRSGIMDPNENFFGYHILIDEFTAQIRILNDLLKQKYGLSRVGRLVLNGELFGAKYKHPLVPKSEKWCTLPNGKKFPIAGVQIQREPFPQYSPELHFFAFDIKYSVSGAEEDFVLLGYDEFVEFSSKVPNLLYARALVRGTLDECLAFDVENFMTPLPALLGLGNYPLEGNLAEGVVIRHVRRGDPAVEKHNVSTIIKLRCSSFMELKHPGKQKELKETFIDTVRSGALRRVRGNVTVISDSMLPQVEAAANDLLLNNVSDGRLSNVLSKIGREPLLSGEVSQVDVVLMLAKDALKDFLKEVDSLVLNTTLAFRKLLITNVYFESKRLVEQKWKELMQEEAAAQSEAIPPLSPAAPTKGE
# [2] = target: Heat shock protein HSP 90-alpha (Homo sapiens, UniProt P07900); assay: Luminescence-based dose response biochemical high throughput screening assay for inhibitors of the Heat Shock Protein 90 (HSP90). [Related pubchem assays: 1831 (Summary AID.), 1846 (Confirmation screen.), 1789 (Primary screen.)]
# [3] = target: T2, Small ubiquitin-related modifier 1 (Homo sapiens, UniProt P63165); assay: SUMO1 protein interaction blockers, potency – biochemical, fluorescence polarization, uHTS hits, dose response (AID 624382); format: functional; conditions: read-out: IC50_Mean
# T2 sequence (P63165 whole entry): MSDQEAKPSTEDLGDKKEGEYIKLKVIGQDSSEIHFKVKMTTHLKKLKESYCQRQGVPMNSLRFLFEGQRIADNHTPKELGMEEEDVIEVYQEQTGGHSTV
# [4] = target: T2, Small ubiquitin-related modifier 1; assay: SUMO1 protein-protein binding blockers, potency – biochemical, FRET, dose response (AID 624383); format: functional; conditions: read-out: IC50_Mean
# [5] = target: Peroxisome proliferator-activated receptor gamma/Nuclear receptor coactivator 1 (Homo sapiens, UniProt P37231); assay: (§1) TR-FRET dose response biochemical High Throughput Screening assay for agonists of the steroid receptor coactivator 1 (SRC-1) recruitment by the peroxisome proliferator-activated receptor gamma (PPAR gamma): non-selective agonists. [Related pubchem assays (depositor defined):AID1300, AID1808, AID504735, AID631]; format: protein assay
# [6] = target: Peroxisome proliferator-activated receptor gamma/Nuclear receptor coactivator 3 (Homo sapiens, UniProt P37231); assay: as §1, with “3 (SRC-3)” for “1 (SRC-1)”, “assays: 1301 (Confirmation screen.), 1048 (Primary screen.)]” for “assays (depositor defined):AID1300, AID1808, AID504735, AID631]”; format: functional
# [7] = target: Peroxisome proliferator-activated receptor gamma/Nuclear receptor coactivator 2 (Homo sapiens, UniProt P37231); assay: TR-FRET dose response biochemical High Throughput Screening assay for agonists of the steroid receptor coactivator 2 (SRC-2) recruitment by the peroxisome proliferator-activated receptor gamma (PPAR gamma): non-selective agonists. [Related pubchem assays: 1297, 1032 ]; format: functional
# [8] = target: Mitogen-activated protein kinase 10 (Homo sapiens, UniProt P53779); assay: Dose response biochemical screening assay for inhibitors of c-Jun N-Terminal Kinase 3 (JNK3). [Related pubchem assays: 746 ]
# Sequence of Mitogen-activated protein kinase 10 (P53779 whole entry): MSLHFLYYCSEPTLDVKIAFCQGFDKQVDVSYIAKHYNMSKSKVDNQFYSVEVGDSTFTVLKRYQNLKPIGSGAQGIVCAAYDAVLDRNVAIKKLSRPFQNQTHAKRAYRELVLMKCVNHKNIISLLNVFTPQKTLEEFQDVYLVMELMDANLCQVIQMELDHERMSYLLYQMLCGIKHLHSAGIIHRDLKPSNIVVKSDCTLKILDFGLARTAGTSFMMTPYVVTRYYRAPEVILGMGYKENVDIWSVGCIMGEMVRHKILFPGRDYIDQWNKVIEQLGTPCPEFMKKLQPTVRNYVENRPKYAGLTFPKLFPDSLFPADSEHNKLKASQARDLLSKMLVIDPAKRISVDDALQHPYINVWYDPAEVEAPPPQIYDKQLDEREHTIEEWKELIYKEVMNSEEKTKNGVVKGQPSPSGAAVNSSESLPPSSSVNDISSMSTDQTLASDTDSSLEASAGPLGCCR
# [9] = target: Ubiquitin carboxyl-terminal hydrolase BAP1 (Homo sapiens, UniProt Q92560); assay: inhibition of BAP1 ubiquitin hydrolase activity – biochemical, dose response (AID 714); format: functional
# Sequence of Ubiquitin carboxyl-terminal hydrolase BAP1 (Q92560 whole entry): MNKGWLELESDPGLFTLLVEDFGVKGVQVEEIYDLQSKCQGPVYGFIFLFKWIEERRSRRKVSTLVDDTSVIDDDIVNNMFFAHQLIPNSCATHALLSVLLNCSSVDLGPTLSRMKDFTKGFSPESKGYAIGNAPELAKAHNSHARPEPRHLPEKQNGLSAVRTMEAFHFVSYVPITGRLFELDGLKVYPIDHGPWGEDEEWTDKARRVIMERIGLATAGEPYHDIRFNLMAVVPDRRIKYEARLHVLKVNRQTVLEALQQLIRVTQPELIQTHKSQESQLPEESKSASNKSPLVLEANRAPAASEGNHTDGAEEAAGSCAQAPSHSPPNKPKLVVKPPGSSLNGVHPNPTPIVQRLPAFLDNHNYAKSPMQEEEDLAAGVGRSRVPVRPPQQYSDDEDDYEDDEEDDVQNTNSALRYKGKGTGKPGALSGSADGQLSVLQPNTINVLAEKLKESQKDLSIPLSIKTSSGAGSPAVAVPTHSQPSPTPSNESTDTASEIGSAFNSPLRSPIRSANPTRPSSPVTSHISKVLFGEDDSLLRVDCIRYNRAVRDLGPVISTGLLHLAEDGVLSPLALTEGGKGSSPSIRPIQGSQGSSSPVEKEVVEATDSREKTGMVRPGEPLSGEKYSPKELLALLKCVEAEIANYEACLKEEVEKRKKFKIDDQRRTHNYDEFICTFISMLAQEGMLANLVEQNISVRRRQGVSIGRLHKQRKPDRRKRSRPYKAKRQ
# [10] = Counterscreen for IDE inhibitors: Luminescence-based cell-based high throughput dose response assay to identify compounds that are cytotoxic to HEK cells. [Related pubchem assays: 434962 (Primary screen (IDE inhibitors in singlicate)), 449730 (Counterscreen (Cytotoxicity in triplicate)), 435028 (Confirmation (IDE inhibitors in triplicate)) …; format: functional; conditions: HEK293
# Insulin-degrading enzyme = target: T3, Insulin-degrading enzyme (Homo sapiens, UniProt P14735); assay: Dose Response: Fluorescence polarization-based cell-based high throughput dose response assay for inhibitors of insulin-degrading enzyme (IDE). [Related pubchem assays: 434962 (Primary screen (IDE inhibitors in singlicate)), 449730 (Counterscreen (Cytotoxicity in triplicate)), 435028 (Confirmation (IDE inhibitors in triplicate)), 434984 (Summary …; format: functional
# T3 sequence (P14735 whole entry): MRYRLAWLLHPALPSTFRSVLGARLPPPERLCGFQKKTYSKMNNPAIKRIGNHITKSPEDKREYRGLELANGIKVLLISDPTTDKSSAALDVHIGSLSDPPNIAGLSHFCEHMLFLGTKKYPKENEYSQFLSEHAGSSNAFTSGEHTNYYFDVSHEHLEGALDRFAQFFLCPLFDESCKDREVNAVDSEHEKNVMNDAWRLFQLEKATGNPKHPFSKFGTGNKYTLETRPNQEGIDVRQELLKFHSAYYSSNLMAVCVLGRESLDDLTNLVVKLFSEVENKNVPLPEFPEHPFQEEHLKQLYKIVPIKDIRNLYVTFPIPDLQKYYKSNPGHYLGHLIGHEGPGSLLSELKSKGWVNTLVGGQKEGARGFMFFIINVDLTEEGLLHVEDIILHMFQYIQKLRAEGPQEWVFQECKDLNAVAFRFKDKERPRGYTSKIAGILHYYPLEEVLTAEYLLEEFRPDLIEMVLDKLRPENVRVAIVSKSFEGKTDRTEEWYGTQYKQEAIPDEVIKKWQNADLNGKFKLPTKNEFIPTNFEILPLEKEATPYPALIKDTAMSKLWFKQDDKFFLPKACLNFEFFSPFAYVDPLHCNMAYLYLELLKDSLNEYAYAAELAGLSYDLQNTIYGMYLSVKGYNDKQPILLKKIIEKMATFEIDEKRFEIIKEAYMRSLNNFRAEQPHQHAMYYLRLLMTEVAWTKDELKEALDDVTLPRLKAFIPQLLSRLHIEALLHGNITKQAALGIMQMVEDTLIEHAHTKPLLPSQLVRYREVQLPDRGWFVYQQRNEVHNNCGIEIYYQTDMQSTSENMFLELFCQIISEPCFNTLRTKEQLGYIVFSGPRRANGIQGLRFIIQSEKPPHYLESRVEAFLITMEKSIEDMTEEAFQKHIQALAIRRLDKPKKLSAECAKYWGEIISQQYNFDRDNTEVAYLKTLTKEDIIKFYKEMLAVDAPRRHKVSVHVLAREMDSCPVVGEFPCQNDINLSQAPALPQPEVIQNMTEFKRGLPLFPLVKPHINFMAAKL
# [11] = M. tuberculosis H37Rv growth inhibitors, H37Rv strain (AID 1626); format: functional
# Bcl-2-related protein A1 [12] = target: T4, Bcl-2-related protein A1 (Mus musculus, UniProt Q07440); assay: displacement of Bid BH3 peptide from Bfl-1 – biochemical, fluorescence polarization, FITC-Bid, mouse, primary screen (AID 432)
# T4 sequence (Q07440 whole entry): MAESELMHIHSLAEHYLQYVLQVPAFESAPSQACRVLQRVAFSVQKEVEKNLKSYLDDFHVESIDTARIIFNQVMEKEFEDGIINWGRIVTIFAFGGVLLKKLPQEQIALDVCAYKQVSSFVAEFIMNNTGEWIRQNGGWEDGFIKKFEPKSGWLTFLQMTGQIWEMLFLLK
# [13] = target: Glyceraldehyde-3-phosphate dehydrogenase (Homo sapiens, UniProt P04406)
# Sequence of Glyceraldehyde-3-phosphate dehydrogenase (P04406 whole entry): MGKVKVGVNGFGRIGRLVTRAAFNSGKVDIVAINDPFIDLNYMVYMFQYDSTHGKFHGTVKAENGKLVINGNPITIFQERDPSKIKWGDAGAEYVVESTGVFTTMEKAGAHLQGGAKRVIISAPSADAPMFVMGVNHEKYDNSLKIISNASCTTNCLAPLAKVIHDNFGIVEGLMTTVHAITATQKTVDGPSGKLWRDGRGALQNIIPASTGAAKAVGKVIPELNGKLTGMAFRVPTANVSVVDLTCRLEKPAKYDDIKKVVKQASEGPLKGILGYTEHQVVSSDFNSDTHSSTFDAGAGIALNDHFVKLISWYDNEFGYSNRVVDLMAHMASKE
# Estrogen receptor = target: T5, Estrogen receptor (Homo sapiens, UniProt P03372);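 further: potency for inhibiting coactivator peptide recruitment to the receptor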
# T5 sequence (P03372 whole entry): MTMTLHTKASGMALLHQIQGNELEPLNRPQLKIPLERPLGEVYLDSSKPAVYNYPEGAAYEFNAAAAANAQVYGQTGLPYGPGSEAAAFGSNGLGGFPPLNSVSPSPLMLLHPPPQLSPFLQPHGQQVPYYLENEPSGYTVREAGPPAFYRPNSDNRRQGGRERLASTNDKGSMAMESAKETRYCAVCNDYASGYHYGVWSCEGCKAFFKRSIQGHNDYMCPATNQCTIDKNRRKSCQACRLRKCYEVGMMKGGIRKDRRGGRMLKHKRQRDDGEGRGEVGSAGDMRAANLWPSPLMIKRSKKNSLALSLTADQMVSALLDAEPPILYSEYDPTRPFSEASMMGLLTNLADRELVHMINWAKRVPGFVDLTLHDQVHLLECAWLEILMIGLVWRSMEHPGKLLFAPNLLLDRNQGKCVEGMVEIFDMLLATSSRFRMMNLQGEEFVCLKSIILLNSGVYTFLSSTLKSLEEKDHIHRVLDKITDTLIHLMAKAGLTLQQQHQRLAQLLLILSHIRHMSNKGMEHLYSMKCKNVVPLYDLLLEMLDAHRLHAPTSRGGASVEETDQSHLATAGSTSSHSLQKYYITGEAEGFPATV
# Bcl-2-related protein A1 [14] = target: T4, Bcl-2-related protein A1; assay: small-molecule antagonists of Bfl-1/BH3 interaction – biochemical, TR-FRET, mouse Bfl-1, confirmation (AID 621);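 further: TR-FRET binding of GST-Bfl-1 to FITC-labelled Bid peptide via terbium antibody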
# Estrogen receptor beta [15] = target: T6, Estrogen receptor beta (Homo sapiens, UniProt Q92731);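 further: recombinant ER-beta bound to coactivator SRC1 peptide in presence of estradiol agonist; inhibitors block coactivator peptide binding and lower the FRET signal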
# T6 sequence (Q92731 whole entry): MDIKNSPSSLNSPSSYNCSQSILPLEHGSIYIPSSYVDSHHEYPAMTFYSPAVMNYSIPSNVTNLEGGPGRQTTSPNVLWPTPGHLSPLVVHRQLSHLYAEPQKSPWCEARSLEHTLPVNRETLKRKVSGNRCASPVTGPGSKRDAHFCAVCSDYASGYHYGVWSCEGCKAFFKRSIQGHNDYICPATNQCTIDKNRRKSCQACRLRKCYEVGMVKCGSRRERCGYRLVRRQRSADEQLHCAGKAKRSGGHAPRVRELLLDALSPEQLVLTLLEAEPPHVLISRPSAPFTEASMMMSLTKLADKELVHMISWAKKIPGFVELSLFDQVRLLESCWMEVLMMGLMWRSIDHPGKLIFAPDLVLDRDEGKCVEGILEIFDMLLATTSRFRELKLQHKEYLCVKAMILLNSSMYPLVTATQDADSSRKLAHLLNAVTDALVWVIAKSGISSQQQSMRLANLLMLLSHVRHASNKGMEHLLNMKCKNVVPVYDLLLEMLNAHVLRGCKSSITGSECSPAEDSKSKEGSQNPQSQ
# Bcl-2-related protein A1 [16] = target: T4, Bcl-2-related protein A1; assay: Bfl-1 binding inhibitors, SAR follow-up, biochemical, fluorescence polarization (AID 1070)
# Estrogen receptor beta [17] = target: T6, Estrogen receptor beta; assay: blockers of SRC-3 recruitment to ERβ – biochemical, ELISA, streptavidin-HRP readout, orthogonal assay, confirmation (AID 1060)
# Vero = assay: mammalian cell viability reduction – secondary assay, cytotoxicity control for West Nile virus antiviral project, dose response (AID 1650); format: functional; conditions: Chlorocebus sabaeus
smiles,measurement,setting,value
Cc1ccc(S(=O)(=O)N(CC(=O)N2CCCCC2)c2cccc(C)c2)cc1,EC50,Mucolipin-3,1.24 µM (active)
same,EC50,Ion channel NompC,> 29.9 µM (not active)
Cc1cccc(-c2noc(CCCC(=O)N3CCOCC3)n2)c1,CC50,HeLa,> 99 µM (not active)
COC(=O)C1=C(C)N(Cc2ccccc2C(F)(F)F)C(NCc2ccc3c(c2)OCO3)=NC1c1ccc(C(F)(F)F)cc1 (stereo unspecified),IC50,[1],> 96.6 µM (inactive)
O=C(O)c1cccc(NC(=S)NC(NC(=O)c2cccc([N+](=O)[O-])c2)C(Cl)(Cl)Cl)c1 (stereo unspecified),IC50,[2],9.85 µM (active)
same,IC50,[3],> 66.6 µM (inactive)
same,IC50,[4],10.8 µM (active)
CCOC(=O)CC(=O)CSc1ncnc2c1oc1ccccc12,EC50,[5],> 79.4 µM (inactive)
same,EC50,[6],> 79.4 µM (not active)
same,EC50,[7],> 26.5 µM (not active)
same,IC50,[8],> 31 µM (not active)
CC1=CC(C)(C)N(C(=O)CSc2nnc(-c3ccccc3)o2)c2ccc(C)cc21,EC50,Mucolipin-3,4.18 µM (active)
same,EC50,Ion channel NompC,> 29.9 µM (not active)
CCOC(=O)c1c(NC(=O)CSc2nnc(CNc3ccc(F)cc3)o2)sc(C)c1C,IC50,[9],29.1 µM (active)
Cc1c(-c2cccc(Cl)c2)nc2ccccc2c1C(=O)OCC(=O)N(C)C1CCS(=O)(=O)C1 (stereo unspecified),IC50,[10],36.1 µM (not active)
same,IC50,Insulin-degrading enzyme,> 55.9 µM (not active)
COC(=O)C1=C(C)N(Cc2ccccc2C(F)(F)F)C(NCC2CC2)=NC1c1ccc(F)cc1 (stereo unspecified),IC50,[1],> 96.6 µM (inactive)
O=C(CSc1nnc(-c2ccco2)o1)c1ccccc1Cl,IC50,[11],> 100 µM (active)
O=C(Nc1cnn(C23CC4CC(CC(C4)C2)C3)c1)c1cnn2c(C(F)(F)F)cc(-c3ccco3)nc12,IC50,Bcl-2-related protein A1 [12],11.2 µM (active)
same,IC50,[13],> 100 µM (not active)
same,IC50,Estrogen receptor,3.64 µM (active)
same,IC50,Bcl-2-related protein A1 [14],1.76 µM (active) and 12.3 µM (active)
same,IC50,Estrogen receptor beta [15],> 50 µM (not active)
same,IC50,Bcl-2-related protein A1 [16],1.69 µM (active)
same,IC50,Estrogen receptor beta [17],< 0.023 µM (not active)
COCCn1cnc2cc(C)c(C)cc21,IC50,Bcl-2-related protein A1 [12],> 100 µM (not active)
same,IC50,Bcl-2-related protein A1 [14],> 100 µM (not active)
O=C1/C(=C/c2ccco2)SC(=S)N1CCC(=O)N1CCCCC1CCO (stereo unspecified),CC50,Vero,13.4 µM (active)
CC(=O)C1=C(C)NC(SCC(=O)c2ccc(Cl)c(Cl)c2)=C(C#N)C1c1ccco1 (stereo unspecified),IC50,[9],> 50 µM (not active)
O=C(CSc1ncccc1-c1nc2ccccc2[nH]1)N1CCN(c2ccccc2F)CC1,IC50,[8],55.9 µM (not active)
COCCn1c(C)cc(C(=O)Cn2nc(C(=O)O)c3ccccc3c2=O)c1C,IC50,[2],3.73 µM (active)
